{"source": "paper PMC8161026", "about": "“Synthesis and Anticancer Activity Evaluation of 5-[2-Chloro-3-(4-nitrophenyl)-2-propenylidene]-4-thiazolidinones” (Molecules, 2021)", "key": {"[1]": {"tested_on": "HCC-2998", "assay": "NCI DTP 60 cell line screen, SRB"}, "[2]": {"tested_on": "HS 578T", "assay": "NCI DTP 60 cell line screen, SRB", "conditions": "48 h"}, "[3]": {"tested_on": "HT-29", "assay": "NCI DTP 60 cell line screen, SRB"}, "[4]": {"tested_on": "NCI-H460", "conditions": "NCI-H460 (Non-Small Cell Lung Cancer), 48 h, SRB"}, "[5]": {"tested_on": "PC-3", "assay": "cells", "conditions": "Homo sapiens, PC-3, 48 h"}, "[6]": {"tested_on": "SN12C", "conditions": "SN12C (Renal Cancer), 48 h, SRB"}, "[7]": {"tested_on": "DU-145", "assay": "cells", "conditions": "Homo sapiens, DU-145, 48 h"}, "[8]": {"tested_on": "KM12", "assay": "cells", "conditions": "Homo sapiens, KM12, 48 h"}, "[9]": {"tested_on": "SR"}, "[10]": {"tested_on": "OVCAR-5", "assay": "NCI DTP 60 cell line screen, SRB"}, "[11]": {"tested_on": "SK-MEL-5", "assay": "NCI DTP 60 cell line screen, SRB"}, "[12]": {"tested_on": "SW-620", "conditions": "SW-620 (Colon Cancer), 48 h, SRB"}, "[13]": {"tested_on": "UACC-62", "assay": "NCI DTP 60 cell line screen, SRB"}, "[14]": {"tested_on": "SK-MEL-28", "conditions": "SK-MEL-28 (Melanoma), 48 h, SRB"}, "[15]": {"tested_on": "RXF 393", "assay": "cells", "conditions": "Homo sapiens, RXF 393, 48 h"}, "[16]": {"tested_on": "TK-10", "assay": "NCI DTP 60 cell line screen, SRB"}, "[17]": {"tested_on": "LOX IMVI", "conditions": "LOX IMVI (Melanoma), 48 h, SRB"}, "[18]": {"tested_on": "NCI-H23", "assay": "cells", "conditions": "Homo sapiens, NCI-H23, 48 h"}, "[19]": {"tested_on": "PC-3", "conditions": "PC-3 (Prostate Cancer), 48 h, SRB"}, "[20]": {"tested_on": "RXF 393", "conditions": "RXF 393 (Renal Cancer), 48 h, SRB"}, "[21]": {"tested_on": "K-562", "assay": "cells", "conditions": "Homo sapiens, K562, 48 h"}, "[22]": {"tested_on": "NCI-H522", "assay": "NCI DTP 60 cell line screen, SRB"}, "[23]": {"tested_on": "KM12", "conditions": "KM12 (Colon Cancer), 48 h, SRB"}, "[24]": {"tested_on": "UO-31", "assay": "NCI DTP 60 cell line screen, SRB"}, "[25]": {"tested_on": "Colo 205", "assay": "NCI DTP 60 cell line screen, SRB"}, "[26]": {"tested_on": "786-0", "conditions": "786-0 (Renal Cancer), 48 h, SRB"}}, "data": [{"smiles": "O=C(O)C(Cc1ccccc1)N1C(=O)/C(=C/C(Cl)=C/c2ccc([N+](=O)[O-])cc2)SC1=S", "note": "(centres unmarked) [Compound 2j, 2-{5-[(Z,2Z)-2-Chloro-3-(4-nitrophenyl)-2-propenylidene]-4-oxo-2-thioxothiazolidin-3-yl}-3-phenylpropanoic acid]", "values": [{"measurement": "TGI", "setting": "[1]; HCC-2998 (Colon Cancer), 48 h, SRB", "value": 3.50, "unit": "µM"}, {"measurement": "GI50", "setting": "[1]; Homo sapiens, HCC 2998, 48 h", "value": 1.96, "unit": "µM"}, {"measurement": "CC50", "setting": "[1]; Homo sapiens, HCC 2998, 48 h, read-out: LC50", "value": 6.27, "unit": "µM"}, {"measurement": "TGI", "setting": "[2]; HS 578T (Breast Cancer), SRB", "value": "> 100", "unit": "µM"}, {"measurement": "GI50", "setting": "[2]; Homo sapiens, Hs-578T", "value": 4.37, "unit": "µM"}, {"measurement": "CC50", "setting": "[2]; Homo sapiens, Hs-578T, read-out: LC50", "value": "> 100", "unit": "µM"}, {"measurement": "TGI", "setting": "[3]; HT-29 (Colon Cancer), 48 h, SRB", "value": 8.47, "unit": "µM"}, {"measurement": "GI50", "setting": "[3]; Homo sapiens, HT-29, 48 h", "value": 2.84, "unit": "µM"}, {"measurement": "CC50", "setting": "[3]; Homo sapiens, HT-29, 48 h, read-out: LC50", "value": "> 100", "unit": "µM"}, {"measurement": "TGI", "setting": "[4]", "value": "> 100", "unit": "µM"}, {"measurement": "GI50", "setting": "[5]", "value": 2.53, "unit": "µM"}, {"measurement": "CC50", "setting": "[5]; read-out: LC50", "value": "> 100", "unit": "µM"}, {"measurement": "TGI", "setting": "[6]", "value": "> 100", "unit": "µM"}, {"measurement": "GI50", "setting": "[7]", "value": 2.06, "unit": "µM"}, {"measurement": "CC50", "setting": "[7]; read-out: LC50", "value": 11.7, "unit": "µM"}, {"measurement": "GI50", "setting": "[8]", "value": 2.06, "unit": "µM"}, {"measurement": "CC50", "setting": "[8]; read-out: LC50", "value": 9.16, "unit": "µM"}, {"measurement": "TI (Therapeutic Index)", "setting": "[9]; GI50 (normal blood lymphocyte)/GI50 (SR)", "value": 19.99}, {"measurement": "TGI", "setting": "[9]; SR (Leukemia), 48 h, SRB", "value": "> 100", "unit": "µM"}, {"measurement": "GI50", "setting": "[10]; Homo sapiens, OVCAR-5, 48 h", "value": 2.82, "unit": "µM"}, {"measurement": "CC50", "setting": "[10]; Homo sapiens, OVCAR-5, 48 h, read-out: LC50", "value": "> 100", "unit": "µM"}, {"measurement": "TGI", "setting": "[10]; OVCAR-5 (Ovarian Cancer), 48 h, SRB", "value": 7.91, "unit": "µM"}, {"measurement": "GI50", "setting": "[11]; Homo sapiens, SK-MEL-5, 48 h", "value": 1.68, "unit": "µM"}, {"measurement": "CC50", "setting": "[11]; Homo sapiens, SK-MEL-5, 48 h, read-out: LC50", "value": 5.6, "unit": "µM"}, {"measurement": "TGI", "setting": "[11]; SK-MEL-5 (Melanoma), 48 h, SRB", "value": 3.06, "unit": "µM"}, {"measurement": "TGI", "setting": "[12]", "value": 4.39, "unit": "µM"}, {"measurement": "GI50", "setting": "[13]; Homo sapiens, UACC-62, 48 h", "value": 2, "unit": "µM"}, {"measurement": "CC50", "setting": "[13]; Homo sapiens, UACC-62, 48 h, read-out: LC50", "value": 30.2, "unit": "µM"}, {"measurement": "TGI", "setting": "[13]; UACC-62 (Melanoma), 48 h, SRB", "value": 4.85, "unit": "µM"}, {"measurement": "TGI", "setting": "[14]", "value": 4.68, "unit": "µM"}, {"measurement": "GI50", "setting": "[15]", "value": 1.54, "unit": "µM"}, {"measurement": "CC50", "setting": "[15]; read-out: LC50", "value": 5.93, "unit": "µM"}, {"measurement": "GI50", "setting": "[16]; Homo sapiens, TK-10, 48 h", "value": 2.43, "unit": "µM"}, {"measurement": "CC50", "setting": "[16]; Homo sapiens, TK-10, 48 h, read-out: LC50", "value": "> 100", "unit": "µM"}, {"measurement": "TGI", "setting": "[16]; TK-10 (Renal Cancer), 48 h, SRB", "value": "> 100", "unit": "µM"}, {"measurement": "TGI", "setting": "[17]", "value": 3.26, "unit": "µM"}, {"measurement": "GI50", "setting": "[18]", "value": 2.13, "unit": "µM"}, {"measurement": "CC50", "setting": "[18]; read-out: LC50", "value": "> 100", "unit": "µM"}, {"measurement": "TGI", "setting": "[19]", "value": 7.98, "unit": "µM"}, {"measurement": "TGI", "setting": "[20]", "value": 3.02, "unit": "µM"}, {"measurement": "GI50", "setting": "[21]", "value": 3.01, "unit": "µM"}, {"measurement": "CC50", "setting": "[21]; read-out: LC50", "value": "> 100", "unit": "µM"}, {"measurement": "GI50", "setting": "[22]; Homo sapiens, NCI-H522, 48 h", "value": 1.72, "unit": "µM"}, {"measurement": "CC50", "setting": "[22]; Homo sapiens, NCI-H522, 48 h, read-out: LC50", "value": 29.5, "unit": "µM"}, {"measurement": "TGI", "setting": "[22]; NCI-H522 (Non-Small Cell Lung Cancer), 48 h, SRB", "value": 4.47, "unit": "µM"}, {"measurement": "TGI", "setting": "[23]", "value": 4.35, "unit": "µM"}, {"measurement": "GI50", "setting": "[24]; Homo sapiens, UO-31, 48 h", "value": 1.59, "unit": "µM"}, {"measurement": "CC50", "setting": "[24]; Homo sapiens, UO-31, 48 h, read-out: LC50", "value": 6.05, "unit": "µM"}, {"measurement": "TGI", "setting": "[24]; UO-31 (Renal Cancer), 48 h, SRB", "value": 3.10, "unit": "µM"}, {"measurement": "TGI", "setting": "[25]; Colo 205 (Colon Cancer), 48 h, SRB", "value": "> 100", "unit": "µM"}, {"measurement": "GI50", "setting": "[25]; Homo sapiens, COLO 205, 48 h", "value": 2.45, "unit": "µM"}, {"measurement": "CC50", "setting": "[25]; Homo sapiens, COLO 205, 48 h, read-out: LC50", "value": "> 100", "unit": "µM"}, {"measurement": "TGI", "setting": "[26]", "value": 5.01, "unit": "µM"}]}]}
